Measurements from US8765960B2, “6-((S)-1- {1-[5-(2-hydroxy-ethoxy)-pyridin-2-yl]-1H-pyrazol-3-YL}-ethyl)-3H-1,3-benzothiazol-2-one as a tarp-gamma 8 dependent AMPA receptor antagonist” (Eli Lilly and Company, priority 2012, dated 2014).

Experiments:
PTZ induced seizures = assay: Rat pentylenetetrazole (PTZ)-induced seizure model; assay type: in vivo
Source text: Rat Pentylenetetrazole (PTZ)-Induced Seizure Model:
Male Sprague Dawley rats (from Harlan Sprague Dawley. Indianapolis, Ind.), weighing 90-110 grams at time of test, are housed 5 per cage with ad libitum food and water in a large colony room with a standard light cycle (lights on 6 am, lights off 6 pm). Animals are maintained in the colony room for at least 3 days before testing Animals are moved to a quiet room 1 hr. prior to the start of the test. Animals are used only once.
Animals are removed and dosed with test compound or vehicle (5% DMSO, 10% acacia and 0.05% Dow Corning® 1510-US antifoam), p.o., 10 mL/Kg, and returned to their home cage. Twenty five min. after dosing, animals are placed onto a screen and the screen is inverted 180 degrees to test for motor impairment. The animals are scored 60 sec. after inversion as follows: 0 if the animal climbs over the screen; 1 if the animal is hanging onto the bottom of the screen; 2 if the animal has fallen off the screen. After completing the screen test, animals are dosed S.C. with 35 mg/kg PTZ in saline in a volume of 1 ml/kg. The animals are then placed in an observation cage and observed for 30 min. post PTZ. […] Lethality during the observation period is also recorded. Animals are scored according to the presence of a specific seizure type at any time during the observation period.

[1] = target: T1, AMPA GluA1 flip isoform devoid of TARP (Homo sapiens, UniProt P42261); assay: FLIPR antagonist functional assay, GluA1 flip expressed in CHO-S cells without TARP; assay type: cell-based; details: no TARP, did not inhibit, assay limit 9260 nM
T1 construct: expressed in transfected cells; host or cells: CHO-S (Invitrogen), transient transfection
T1 sequence (P42261 19-906 isoform P42261-2 limits assumed): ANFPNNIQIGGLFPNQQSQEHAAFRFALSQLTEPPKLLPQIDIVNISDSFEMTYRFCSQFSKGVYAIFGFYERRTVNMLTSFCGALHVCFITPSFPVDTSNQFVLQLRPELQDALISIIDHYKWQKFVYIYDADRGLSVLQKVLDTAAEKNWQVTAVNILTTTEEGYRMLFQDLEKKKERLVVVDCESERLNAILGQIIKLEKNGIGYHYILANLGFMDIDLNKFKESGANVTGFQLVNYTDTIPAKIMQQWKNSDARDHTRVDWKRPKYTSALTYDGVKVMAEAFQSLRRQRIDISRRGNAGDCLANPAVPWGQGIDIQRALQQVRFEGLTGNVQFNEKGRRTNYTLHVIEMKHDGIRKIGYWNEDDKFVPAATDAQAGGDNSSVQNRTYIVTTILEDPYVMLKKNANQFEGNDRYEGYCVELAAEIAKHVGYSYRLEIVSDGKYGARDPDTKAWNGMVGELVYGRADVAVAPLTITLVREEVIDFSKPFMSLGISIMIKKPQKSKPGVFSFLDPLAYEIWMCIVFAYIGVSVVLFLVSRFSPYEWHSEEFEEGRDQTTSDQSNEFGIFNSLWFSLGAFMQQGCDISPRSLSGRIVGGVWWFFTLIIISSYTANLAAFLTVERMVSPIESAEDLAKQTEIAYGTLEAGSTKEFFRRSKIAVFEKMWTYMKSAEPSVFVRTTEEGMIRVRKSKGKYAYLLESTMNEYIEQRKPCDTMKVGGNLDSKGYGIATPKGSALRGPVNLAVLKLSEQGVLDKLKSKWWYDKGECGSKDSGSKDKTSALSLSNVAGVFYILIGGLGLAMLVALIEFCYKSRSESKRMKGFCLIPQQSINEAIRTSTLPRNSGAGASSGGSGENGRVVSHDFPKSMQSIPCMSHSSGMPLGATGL
Experimental: (§1) FLIPR Antagonist Functional Assay
(§2) Briefly, CHO-S (Invitrogen) cells are grown in suspension in 50/50 custom media to a density of 1×10^7 cells/ml. […]

motor impairment = assay: Inverted screen test for motor impairment (within rat PTZ model); assay type: in vivo; details: rats, 1-10 mg/Kg p.o., 25 min after dosing
Experimental: Animals are removed and dosed with test compound or vehicle (5% DMSO, 10% acacia and 0.05% Dow Corning® 1510-US antifoam), p.o., 10 mL/Kg, and returned to their home cage. Twenty five min. after dosing, animals are placed onto a screen and the screen is inverted 180 degrees to test for motor impairment. The animals are scored 60 sec. after inversion as follows: 0 if the animal climbs over the screen; 1 if the animal is hanging onto the bottom of the screen; 2 if the animal has fallen off the screen. After completing the screen test, animals are dosed S.C. with 35 mg/kg PTZ in saline in a volume of 1 ml/kg. The animals are then placed in an observation cage and observed for 30 min. post PTZ. […] Tonic seizure is defined as loss of righting with tonic hindlimb extension. Lethality during the observation period is also recorded. Animals are scored according to the presence of a specific seizure type at any time during the observation period.

[2] = target: T2, TARP γ8 dependent GluA1 flop receptors (Homo sapiens, UniProt P42261+Q8WXS5); assay: FLIPR antagonist functional assay, GluA1 flop co-expressed with TARP γ-8 in CHO-S cells; assay type: cell-based; details: glutamate 45 μM plus CTZ 20 μM, average±SEM, n=9
T2 construct: expressed in transfected cells; host or cells: CHO-S (Invitrogen), transient transfection
T2 sequence (P42261 19-906): as the sequence (P42261 19-906 isoform P42261-2 limits assumed) above, with G740N, S750N, V754L, S760N, K772G, D773G, S774G, G775D counted along it
T2 sequence (Q8WXS5 whole entry): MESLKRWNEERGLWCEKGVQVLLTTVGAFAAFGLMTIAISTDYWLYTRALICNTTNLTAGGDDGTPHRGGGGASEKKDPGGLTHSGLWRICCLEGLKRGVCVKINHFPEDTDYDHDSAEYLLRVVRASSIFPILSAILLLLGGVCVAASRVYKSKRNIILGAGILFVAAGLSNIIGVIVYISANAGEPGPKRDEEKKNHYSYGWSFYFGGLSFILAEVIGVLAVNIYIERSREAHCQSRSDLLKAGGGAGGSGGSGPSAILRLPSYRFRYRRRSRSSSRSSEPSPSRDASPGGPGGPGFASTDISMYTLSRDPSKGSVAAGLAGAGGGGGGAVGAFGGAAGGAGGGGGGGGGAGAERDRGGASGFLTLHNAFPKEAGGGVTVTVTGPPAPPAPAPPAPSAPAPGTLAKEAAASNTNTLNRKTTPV
Experimental: as §1, §2

[3] = target: T3, TARP γ2 dependent GluA1 flop receptors (Homo sapiens, UniProt P42261+Q9Y698); assay: FLIPR antagonist functional assay, GluA1 flop co-expressed with TARP γ-2 in CHO-S cells; assay type: cell-based; details: did not inhibit, assay limit 9260 nM
T3 construct: expressed in transfected cells; host or cells: CHO-S (Invitrogen), transient transfection
T3 sequence (P42261 19-906): as the sequence (P42261 19-906 isoform P42261-2 limits assumed) above, with G740N, S750N, V754L, S760N, K772G, D773G, S774G, G775D counted along it
T3 sequence (Q9Y698 whole entry): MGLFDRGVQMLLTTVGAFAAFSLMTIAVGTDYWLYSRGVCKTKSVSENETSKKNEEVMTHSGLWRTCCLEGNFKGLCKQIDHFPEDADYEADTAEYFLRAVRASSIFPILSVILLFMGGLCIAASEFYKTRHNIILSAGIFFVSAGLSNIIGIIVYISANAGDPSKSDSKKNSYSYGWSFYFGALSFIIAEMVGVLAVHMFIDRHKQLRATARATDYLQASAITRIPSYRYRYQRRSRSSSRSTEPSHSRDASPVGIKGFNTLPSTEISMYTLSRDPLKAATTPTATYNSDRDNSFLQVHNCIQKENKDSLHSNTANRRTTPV
Experimental: as §1, §2

formalin induced pain = assay: Manual formalin induced pain model; assay type: in vivo, mice; details: for % reduction in total time licking: mice
Experimental: Manual Formalin Induced Pain Model
The manual formalin induced pain model is well known for screening compounds for analgesic properties (Mogil J. S. et al., Heritability of nociception I: Responses of 11 inbred mouse strains on 12 measures of nociception. Pain 80 (1999) 67-82). The assay is performed in Plexiglas® boxes approx. 10 cm×10 cm×10 cm in size. A minor placed at the back of the cage allows the unhindered observation of the formalin injected paw. Non-fasted male mice (Harlan (HSD) CD1-Icr) are placed individually in the cubicles at least 60 min. prior to the experiment. All testing is conducted between 08:00 and 16:00 hr. and the testing room temperature is maintained at 21-23° C. Multiple doses of test compound (3, 10 and 30 mg/kg), vehicle (5% DMSO in 10% Acacia, 0.05% antifoam), and a positive control (tramadol 80 mg/kg in 1% HEC, 0.25% Tween 80, 0.05% antifoam) are peripherally administered (p.o.) at varying times before the formalin challenge. Formalin (20 μL of a 5% solution in 0.9% saline) is injected subcutaneously into the plantar surface of the left hind paw with a 27 gauge needle. Observation starts immediately after the formalin injection. Formalin induced pain is quantified by recording the number of seconds each licking event lasts in 5 min. intervals. The pain scoring is measured for 60 min. after the formalin injection. Two phases of pain behavior are observed as previously described (Wheeler-Aceto, H., Porreca, F. and Cowan, A., The rat paw formalin test: comparison of noxious agents, Pain 40 (1990) 229-238.). The early phase starts immediately after the formalin injection and lasts approximately 5 min., followed by the late phase that starts between minutes 10-15 with a maximum response typically observed around 25-40 min after the formalin injection. After the 60 min observation period, animals are sacrificed with CO2 followed by cervical dislocation. Of the different scoring parameters reported for the formalin test, the total time spent licking and biting the injected paw is considered to be most relevant. (Abbott et al., The formalin test: scoring properties of the first and second phases of the pain response in rats, Pain 60 (1995) 91-102; Coderre et al., The formalin test: a validation of the weighted-scores method of the behavioral pain rating, Pain 54 (1993) 43-50).) The early phase score is the sum of time spent licking (seconds) from time 0 to 5 min. The late phase score is obtained by adding the total number of seconds spent licking from minute 15 to min. 55 of the observation period. Data are presented as means with standard errors of means (±SEM). Data are evaluated by one-way analysis of variance (ANOVA) and the appropriate contrasts analyzed by Dunnett “t” test for two sided comparisons. […]

SMILES: C[C@@H](c1ccc2[nH]c(=O)sc2c1)c1ccn(-c2ccc(OCCO)cn2)n1 (single isomer, unassigned) [Example 2]
- ED50 (PTZ induced seizures; Rattus norvegicus, male Sprague Dawley rats, p.o., dose range 1-10 mg/Kg, PTZ 35 mg/kg S.C., read-out: estimated ED50, protection against PTZ induced seizures): 1.74 mg/kg
- protection against PTZ induced seizures (PTZ induced seizures; rats, 10 mg/Kg p.o.): 100%
- IC50 [1]: > 9.26 µM
- motor impairment as measured by the inverted screen test (motor impairment): without any observed motor impairment
- IC50 [2]: 0.0745 ± 0.0178 µM
- inhibition of glutamate plus CTZ activation [2]: about 85.6±0.7%
- IC50 [3]: > 9.26 µM
- ED50 (formalin induced pain; Mus musculus, po, male CD1 mice, p.o., derived from dose responses at 3, 10, 30 mg/kg, read-out: ED50, reduction of pain behavior): 2.61 mg/kg
- % reduction in total time licking (formalin induced pain; 3 mg/kg p.o.): 53.9%
- % reduction in total time licking (formalin induced pain; 10 mg/kg p.o.): 80.4%
- % reduction in total time licking (formalin induced pain; 30 mg/kg p.o.): 90.0%
